Here are results for two substances from US5059625A, “Polyglycidol amine oxide surfactants having antimicrobial activity” (Olin Corporation, priority 1990, dated 1991).

Data set [1] is described as follows: Solubility in 50% sodium hydroxide solution. It is filed as physicochemical. On the procedure:
A 500 ml, 3-necked round bottom flask was fitted with a mechanical stirrer, thermometer, nitrogen inlet, dropping funnel and vent. Under the nitrogen atmosphere, Armeen CD^(1), 15 g (0.075 mole) was placed in the flask and the contents heated to 138° C. Glycidol in an amount of 16.67 g (0.225 mole) was placed in the dropping funnel and glycidol addition to the Armeen CD was initiated at a rate of approximately 0.15 g/minute. Reaction temperature was maintained at 140°-152° C. and glycidol addition was completed in about 2 hours. The reaction mixture was stirred and heated at reaction temperature an additional 2 hours. The flask and its contents were then cooled and the product removed. […] This product was referred to as cocamine 3-mole glycidol adduct and its molecular weight was 422.
All three products were soluble in 50% sodium hydroxide solution.

The subject of the next data set is A[…] (Fungus). Nature of the data set: Minimum Inhibitory Concentration (MIC) test. It is filed as cell-based. The note with it: Aspergillus niger (fungus). The protocol:
(§1) Minimum Inhibitory Concentration (MIC's) were determined and compared to a nonylphenol-glycidol based surfactant.

Another data set relates to E[…] (Gram Negative). Nature of the data set: Minimum Inhibitory Concentration (MIC) test. The conditions noted are these: Escheridida coli (Gram negative). Type of data set: cell-based. On the procedure:
as §1

Data set [2] relates to STAPHYLOCOCCUS AUREUS (Gram positive). The data set can be described thus: Minimum Inhibitory Concentration (MIC) test. Type of data set: cell-based. On the procedure: as §1
The nature of data set [3]: Surface tension (ASTM Designation D1331-56). It is filed as physicochemical. The conditions noted are these: 0.1 wt. % concentration; ASTM D1331-56. The source says: The surface tensions (ASTM Designation D1331-56) of the products at 0.1 wt. % concentration were as follows: […]

For cocamine 3-mole glycidol adduct, the “solubility in 50% sodium hydroxide solution” value in data set [1] was “soluble and clear”.
In the case of Armeen CD-3m glycidol amine [Example I], the “Minimum Inhibitory Concentration” value stood at 128 PPM in the data set on A[…] (Fungus), 256 PPM with E[…] (Gram Negative) and 32 PPM in data set [2]. For the same substance, in data set [3], the surface tension was 32.3 dynes/cm.
